Reference: publication PMC5405701 (ChemMedChem, 2017)

Tests used:
[1] = target: T1, human ERα ligand binding domain (LBD) (Homo sapiens, UniProt P03372); assay: competitive fluorometric; conditions: relative to parent 2a (compared to 2a and 4a)
T1 sequence (P03372 311-547 limits assumed): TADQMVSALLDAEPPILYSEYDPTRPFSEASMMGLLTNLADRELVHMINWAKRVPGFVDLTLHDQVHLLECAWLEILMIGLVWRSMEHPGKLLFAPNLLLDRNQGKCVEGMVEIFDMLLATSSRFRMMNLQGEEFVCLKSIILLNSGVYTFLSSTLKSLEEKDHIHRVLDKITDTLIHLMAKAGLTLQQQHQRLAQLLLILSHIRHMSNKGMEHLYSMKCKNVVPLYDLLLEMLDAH

[2] = target: human ERβ ligand binding domain (LBD) (Homo sapiens, UniProt Q92731); assay: competitive fluorometric; conditions: ratio of RBA ERβ to RBA ERα
ERα = ERα (Homo sapiens, UniProt P03372); assay: cell-based; type: cell-based
ERβ = ERβ (Homo sapiens, UniProt Q92731); assay: cell-based; type: cell-based
[3] = test system: MCF-7 breast cancer cells; assay: antiproliferative activity, MTT assay, MCF-7; conditions: Homo sapiens, MCF7, 72 h, read-out: MCF-7 Inhibition (%)

Sequence of ERβ (Q92731 whole entry): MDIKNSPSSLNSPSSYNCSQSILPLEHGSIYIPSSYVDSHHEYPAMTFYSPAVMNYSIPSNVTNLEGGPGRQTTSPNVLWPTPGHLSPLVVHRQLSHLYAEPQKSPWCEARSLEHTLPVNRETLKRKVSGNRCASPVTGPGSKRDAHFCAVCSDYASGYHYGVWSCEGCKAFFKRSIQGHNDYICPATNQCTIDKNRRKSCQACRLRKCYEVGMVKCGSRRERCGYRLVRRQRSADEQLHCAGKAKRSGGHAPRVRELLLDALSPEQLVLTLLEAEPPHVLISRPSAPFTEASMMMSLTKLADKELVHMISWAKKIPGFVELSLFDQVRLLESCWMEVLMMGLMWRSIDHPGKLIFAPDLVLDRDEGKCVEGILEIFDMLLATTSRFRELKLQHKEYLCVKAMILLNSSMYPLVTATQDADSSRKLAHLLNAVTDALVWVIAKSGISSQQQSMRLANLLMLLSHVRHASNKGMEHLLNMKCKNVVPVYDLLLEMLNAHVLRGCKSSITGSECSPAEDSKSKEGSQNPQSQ
Sequence of ERα (P03372 whole entry): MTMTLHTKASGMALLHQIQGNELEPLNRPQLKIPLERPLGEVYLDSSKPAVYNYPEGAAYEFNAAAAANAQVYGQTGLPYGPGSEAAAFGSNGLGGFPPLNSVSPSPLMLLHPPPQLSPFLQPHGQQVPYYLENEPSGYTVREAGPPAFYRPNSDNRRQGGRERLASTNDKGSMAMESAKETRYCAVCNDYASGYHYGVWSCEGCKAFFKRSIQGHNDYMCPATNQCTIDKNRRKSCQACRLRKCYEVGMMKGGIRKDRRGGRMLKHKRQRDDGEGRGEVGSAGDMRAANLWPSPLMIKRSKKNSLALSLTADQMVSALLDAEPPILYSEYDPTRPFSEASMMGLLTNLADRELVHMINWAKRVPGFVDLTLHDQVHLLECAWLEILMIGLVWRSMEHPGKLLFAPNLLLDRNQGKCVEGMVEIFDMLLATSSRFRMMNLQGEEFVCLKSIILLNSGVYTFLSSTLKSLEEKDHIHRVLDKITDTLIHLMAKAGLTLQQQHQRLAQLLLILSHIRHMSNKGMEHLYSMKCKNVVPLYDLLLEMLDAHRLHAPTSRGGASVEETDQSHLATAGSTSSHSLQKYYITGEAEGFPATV
Sequence of human ERβ ligand binding domain (LBD) (Q92731 264-498 limits assumed): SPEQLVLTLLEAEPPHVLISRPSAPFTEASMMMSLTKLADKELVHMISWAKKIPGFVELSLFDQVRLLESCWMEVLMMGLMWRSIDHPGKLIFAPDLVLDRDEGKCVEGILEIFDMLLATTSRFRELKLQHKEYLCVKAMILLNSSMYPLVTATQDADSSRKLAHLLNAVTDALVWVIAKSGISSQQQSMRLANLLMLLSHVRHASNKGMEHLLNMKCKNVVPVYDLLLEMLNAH

Cc1cc(O)ccc1-c1cc(Br)c(-c2ccc(O)cc2C)[se]1 [Compound 6b, 3-Bromo-2,5-bis(4-hydroxy-2-methylphenyl)selenophene]
fold increase in binding affinity for ERα over 2a [1]: more than 23 fold | β/α [2]: 0.74 | EC50 (ERα): 790 nM | Agonist Mode ERα Eff (%E2) (ERα; maximal response as percentage of response to 10^−8 M E2, HEK293T): 21 ± 5 %E2 | EC50 (ERβ): 9 nM | Emax (ERβ; HEK-293T, 24 h, read-out: Agonist Mode ERβ Eff (%E2)): 69 ± 9% | transcriptional activity profile on ERβ (ERβ; reporter gene assay, HEK293T): antagonist | inhibition at 10 µM [3]: 2.5%
